For experiment [1], the system named is 3243G High cells. In words: Cell death induction: DAPI nuclear staining and cleaved caspase-3 immunostaining. In kind it is cell-based, human. To be noted: 25 μM, 5 days. As for the experimental part: In order to confirm that the suppression of cell proliferation by CCC020-TPP was the induction of cell death, the 3243G High cells were inoculated at 5×10^4 cells/dish to a 35 mm glass base dish (IWAKI), cultured for 24 hours, and then treated with CCC020-TPP (final concentration: 25 μM). The cells thus supplemented with CCC020-TPP were further cultured for 5 days and fixed with 4% PFA/PBS at room temperature for 30 minutes. The cells thus fixed were washed with PBS and blocked with TBST containing 5% normal goat serum for 1 hour. After the completion of blocking, the cells were reacted for 1 hour with a primary antibody diluted with TBST, i.e., a rabbit anti-cleaved caspase-3 antibody (for the cells treated for 5 days: Cell Signaling Technology, Inc.) diluted at 1:200.

For the next experiment, the system named is HeEB1 cells. In words: mRNA expression of cell cycle arrest- and apoptosis-related genes by real-time PCR. In kind it is cell-based, human. Conditions: 25 μM, 3 days. As for the experimental part: (§1) In order to elucidate the mechanism of the cell proliferation suppressive effect by CCC020-TPP administration, expression analysis at the mRNA level was conducted by real-time PCR. The mtDNA mutation cell line (3243G High) and the normal cell line (HeEB1) were inoculated at 5×10^5 cells/dish and 1×10^5 cells/dish, respectively, to 6 cm dishes (Falcon), cultured for 24 hours, and then treated with CCC020-TPP (final concentration: 25 μM). After further culture for 3 days, RNA was extracted using RNeasy Plus Mini Kit (QIAGEN) according to the instruction manual. The yield of the RNA thus extracted was measured using NANO DROP 2000™ (Thermo Fisher Scientific). The reverse-transcription reaction of RNA was performed with 500 ng of RNA per sample using SuperScript VILO Master Mix (Invitrogen) to synthesize cDNA. The synthesized cDNA was diluted 5-fold with ultrapure water.
(§2) Real-time PCR employed Power SYBR Green Master Mix (Applied Biosystems), and cDNA sample preparation, PCR reaction and analysis were conducted. The primers and reaction conditions used are shown below.
(§3) The PCR reaction conditions were as follows.
In general terms: In qPCR the cycle at which signal appears reflects the starting amount.

The subject of experiment [2] is 3243G High cells. The experiment is described as above. In kind it is cell-based, human. To be noted: 25 μM, 3 days. As to the method: as §1, §2, §3
Another experiment has as its system 3243G Low cells. In words: WST assay of cell proliferation with morphological observation. In kind it is cell-based, human. Conditions: 5 days. As to the method:
(§4) The proliferation suppressive effect of CCC020-TPP on cells having the mitochondrial A3243G mutation was evaluated by WST assay. Both a mitochondrial DNA mutated cell line and a normal cell line were inoculated at 1×10^3 cells/well to 96-well plates (Thermo Fisher Scientific), cultured for 24 hours, and then treated with CCC020-TPP (final concentration: 0, 0.1, 1, 10, 20, and 50 μM). The cells were further cultured for 5 days and then morphologically observed under optical microscope IX71 (OLYMPUS, Tokyo, Japan). Then, cell survival rates were calculated using Cell counting kit-8 (DOJINDO, Kumamoto, Japan) according to the instruction manual. DMSO (FUJIFILM Wako Pure Chemical Corp.) (final concentration: 1%) was added as a control to cells.
(§5) IC50 was calculated according to the following expression:
(§6) IC50=10(LOG(A/B)×(50−C)/(D−C)+LOG(B)) • A: higher concentration across the concentration at the cell survival rate of 50% • B: lower concentration across the concentration at the cell survival rate of 50% • C: inhibition rate at the lower concentration across the concentration at the cell survival rate of 50% • D: inhibition rate at the higher concentration across the concentration at the cell survival rate of 50%

In experiment [3] the test system is 3243G High cells. Described as above. Conditions: 5 days. In kind it is cell-based, human. As to the method:
as §4, §5, §6

The subject of the next experiment is HeEB1 (HeLamtHeLa) cells. The experiment is described as above. In kind it is cell-based, human. Conditions: 5 days. As for the experimental part: as §4, §5, §6
The next experiment has as its system Caski. Briefly: WST cell proliferation assay of library compounds. In kind it is cell-based. Conditions: Homo sapiens, Ca-Ski, 120 h, 5 days. From the text: (§7) Compound CCCh560-TPP with a decacyclic structure targeting the A8860G polymorphism of mitochondrial gene ATP6 found in human populations, not acquired mitochondrial mutations in somatic cells, was studied for whether the suppression of cell proliferation was also found by 5-day treatment with the compound for the mitochondrial DNA polymorphism in cancer cell lines C33A, HeLa, Siha, Caski, and ME180 having this polymorphism in homoplasmy and human nontumor skin-derived fibroblast HDF cells. For this purpose, cell proliferation assay was conducted in the same manner as in Example 1. 1000 cells were inoculated to a 96-well plate, and CCCh560-TPP was administered at 0.5, 1, 5, 10, and 20 μM. 5 days later, WST assay was conducted.

The test system of experiment [4] is HDF (human skin fibroblasts). In words: WST cell proliferation assay of library compounds. In kind it is cell-based. To be noted: 5 days.
From the text: as §7

The subject of another experiment is Siha. In words: WST cell proliferation assay of library compounds. In kind it is cell-based. Conditions: Homo sapiens, 120 h, 5 days.
From the text: as §7

A further experiment deals with ME180. Briefly: WST cell proliferation assay of library compounds. In kind it is cell-based. To be noted: Homo sapiens, ME-180, 120 h; ME180, 5 days.
From the text: as §7

Another experiment deals with HeLa cells. Briefly: WST cell proliferation assay of library compounds. Conditions: Homo sapiens, 120 h, 5 days. In kind it is cell-based. As to the method: (§8) This compound can recognize the T4216C mutation of mitochondrial ND1 gene, and a uterine cervical cancer cell line C33A has this mutation. Cell proliferation assay with wild-type HeLa cells, which is also a uterine cervical cancer cell line, was conducted in the same manner as in Example 1. 1000 cells were inoculated to a 96-well plate, and CCC1283-TPP was administered at 0.5, 1, 5, 10, and 20 μM. 5 days later, WST assay was conducted.
(§9) This compound can recognize the T4216C mutation of mitochondrial ND1 gene, and a uterine cervical cancer cell line C33A has this mutation. Cell proliferation assay with wild-type HeLa cells, which is also a uterine cervical cancer cell line, was conducted in the same manner as in Example 1. 1000 cells were inoculated to a 96-well plate, and CCCh531-TPP was administered at 0.5, 1, 5, 10, and 20 μM. 5 days later, WST assay was conducted.
as §7

Another experiment deals with C33A. Briefly: WST cell proliferation assay of library compounds. In kind it is cell-based. Conditions: Homo sapiens, C-33-A, 120 h, 5 days. As for the experimental part: as §8, §9, §7

`CN(C)CCCNC(=O)CCNC(=O)c1cc(NC(=O)c2cc(NC(=O)CCNC(=O)c3nc(NC(=O)c4nc(NC(=O)c5nc(NC(=O)CCNC(=O)CCCC[P+](c6ccccc6)(c6ccccc6)c6ccccc6)cn5C)cn4C)cn3C)cn2C)cn1C` [CCC020-TPP]: in the experiment on 3243G High cells [1], the “cleaved caspase-3-positive cells (apoptosis)” value is “approximately half”. Also, the “cells with fragmentation of the nucleus” value in the experiment on 3243G High cells [1] (DAPI) was “approximately 60%”. In addition, the “expression of P21, BAX and MCL1” value in the experiment on HeEB1 cells is recorded as “no change in expression was found”. Also, the “expression of antiapoptosis-related gene MCL1” value in the experiment on 3243G High cells [2] is “significantly decreased”. Moreover, in the experiment on 3243G High cells [2], the “expression of cell cycle arrest-related gene P21” value is on record as “significantly increased”. Further, in the experiment with 3243G High cells [2], the “expression of proapoptosis-related gene BAX” value was “significantly increased”. Also, the “suppression of cell proliferation (WST)” value in the experiment with 3243G Low cells (0.1-50 μM) was “cell proliferation suppressive effect was markedly found”; with 3243G High cells [3] (0.1-50 μM) it was “cell proliferation suppressive effect was markedly found”; with HeEB1 (HeLamtHeLa) cells (0.1-50 μM), “cell proliferation was not suppressed”. Besides, the “cell morphology under optical microscope” value with 3243G Low cells was “no morphological change in cells was found”; with 3243G High cells [3], “cells that seemed to undergo apoptosis were markedly observed”; in the experiment with HeEB1 (HeLamtHeLa) cells, “no morphological change in cells was found”.
On to `CN(C)CCCNC(=O)CCNC(=O)c1cc(NC(=O)c2cc(NC(=O)CCNC(=O)c3nc(NC(=O)c4cc(NC(=O)c5nc(NC(=O)CCCNC(=O)c6cc(NC(=O)c7nc(NC(=O)CCNC(=O)c8nc(NC(=O)c9nc(NC(=O)c%10nc(NC(=O)CCNC(=O)CCCC[P+](c%11ccccc%11)(c%11ccccc%11)c%11ccccc%11)cn%10C)cn9C)cn8C)cn7C)cn6C)cn5C)cn4C)cn3C)cn2C)cn1C` [CCCh560-TPP], for which the 50% inhibitory concentration (IC50) with Caski was 5.5 µM; in the experiment with Siha it was 12.6 µM; in the experiment with ME180 it was 3.24 µM; in the experiment with HeLa cells, 7.75 µM; in the experiment with C33A it was 1.65 µM. In addition, the “suppression of proliferation (WST)” value in [4] (0.5-20 μM) is listed as “tendency to suppress the proliferation”. Moreover, in [4], the “IC50 (WST)” value was “incalculable”.

Broadly, the IC50 is the midpoint of a concentration-inhibition curve. Low values mean inhibition by little substance, high ones a need for much substance.
